Reference: ChEMBL document CHEMBL1938241, “Design, synthesis, and activity evaluation of broad-spectrum small-molecule inhibitors of anti-apoptotic Bcl-2 family proteins: characteristics of broad-spectrum protein binding and its effects on anti-tumor activity” (Bioorg Med Chem Lett, 2012)

What was measured:
[1] = target: Induced myeloid leukemia cell differentiation protein Mcl-1 (Homo sapiens, UniProt Q07820); assay: Binding affinity to Mcl-1 by competitive fluorescence polarization assay
[2] = system: Raji; assay: Cytotoxicity against human Raji cells expressing Bcl-xL, Bcl-2 and Mcl-1 at 100 ug/ml after 72 hrs by MTT assay relative to control; assay type: functional; details: read-out: GI
[3] = target: Apoptosis regulator Bcl-2 (Homo sapiens, UniProt P10415); assay: Binding affinity to Bcl-2 by competitive fluorescence polarization assay
Sequence of Apoptosis regulator Bcl-2 (P10415 whole entry): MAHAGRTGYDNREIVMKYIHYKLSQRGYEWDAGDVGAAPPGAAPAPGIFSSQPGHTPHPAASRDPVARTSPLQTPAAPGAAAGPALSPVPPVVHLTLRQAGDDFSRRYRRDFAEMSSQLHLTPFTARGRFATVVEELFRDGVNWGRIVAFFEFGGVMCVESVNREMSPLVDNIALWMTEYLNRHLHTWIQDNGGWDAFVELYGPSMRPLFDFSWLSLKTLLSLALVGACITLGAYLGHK

[4] = system: MDA-MB-435; assay: Cytotoxicity against human MDA-MB-435 cells expressing Bcl-xL, Bcl-2 and Mcl-1 at 100 ug/ml after 72 hrs by MTT assay relative to control; assay type: functional; details: MDA-MB-435, 72 h, read-out: GI
[5] = target: Bcl-2-like protein 1 (Homo sapiens, UniProt Q07817); assay: Binding affinity to Bcl-xL by competitive fluorescence polarization assay
Sequence of Bcl-2-like protein 1 (Q07817 whole entry): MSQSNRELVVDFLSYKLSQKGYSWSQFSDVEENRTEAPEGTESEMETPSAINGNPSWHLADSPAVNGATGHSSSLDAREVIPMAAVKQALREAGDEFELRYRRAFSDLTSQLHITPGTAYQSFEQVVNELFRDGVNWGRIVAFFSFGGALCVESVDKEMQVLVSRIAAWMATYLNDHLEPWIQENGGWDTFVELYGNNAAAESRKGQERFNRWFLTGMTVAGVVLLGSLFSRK

[6] = system: HCT-116; assay: Cytotoxicity against human HCT116 cells expressing Bcl-xL, Bcl-2 and Mcl-1 after 72 hrs by MTT assay; assay type: functional, cell-based; details: HCT-116, 72 h
[7] = system: Raji; assay: Cytotoxicity against human Raji cells expressing Bcl-xL, Bcl-2 and Mcl-1 after 72 hrs by MTT assay; assay type: functional, cell-based
[8] = system: MDA-MB-435; assay: Cytotoxicity against human MDA-MB-435 cells expressing Bcl-xL, Bcl-2 and Mcl-1 after 72 hrs by MTT assay; assay type: functional, cell-based; details: MDA-MB-435, 72 h

Sequence of Induced myeloid leukemia cell differentiation protein Mcl-1 (Q07820 whole entry): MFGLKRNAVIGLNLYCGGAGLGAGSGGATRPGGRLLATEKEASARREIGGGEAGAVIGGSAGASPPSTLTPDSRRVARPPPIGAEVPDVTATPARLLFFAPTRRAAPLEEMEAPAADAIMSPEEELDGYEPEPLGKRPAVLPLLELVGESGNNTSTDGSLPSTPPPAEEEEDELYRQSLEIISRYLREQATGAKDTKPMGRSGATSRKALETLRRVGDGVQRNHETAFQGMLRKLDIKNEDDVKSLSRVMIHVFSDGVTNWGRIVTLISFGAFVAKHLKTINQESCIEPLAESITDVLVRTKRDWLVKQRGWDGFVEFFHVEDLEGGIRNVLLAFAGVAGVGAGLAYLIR

| Compound | Ki [1] [µM] | Ki [3] [µM] | Ki [5] [µM] | inhibition of growth at 100 µg/mL [2] [%] | inhibition of growth at 100 µg/mL [4] [%] | IC50 [6] [µM] | IC50 [7] [µM] | IC50 [8] [µM] |
| --- | --- | --- | --- | --- | --- | --- | --- | --- |
| CC(=O)N[C@@H](CC(C)C)C(=O)Nc1ccc(C(=O)NS(=O)(=O)c2ccc(NCCSc3ccccc3)c([N+](=O)[O-])c2)cc1 | 1.8 | 3.78 | 5.82 | 58.3 | 25.6 |  |  |  |
| CC[C@H](C)[C@H](NC(C)=O)C(=O)Nc1ccc(C(=O)NS(=O)(=O)c2ccc(NCCSc3ccccc3)c([N+](=O)[O-])c2)cc1 | 2.29 | 3.38 | 4.84 | 40.9 | 13.5 |  |  |  |
| CSCC[C@H](NC(C)=O)C(=O)Nc1ccc(C(=O)NS(=O)(=O)c2ccc(NCCSc3ccccc3)c([N+](=O)[O-])c2)cc1 | 3.11 | 3.52 | 3.91 | 40.1 | 16 |  |  |  |
| CC(=O)N[C@@H](Cc1c[nH]c2ccccc12)C(=O)Nc1ccc(C(=O)NS(=O)(=O)c2ccc(NCCSc3ccccc3)c([N+](=O)[O-])c2)cc1 | 4.03 | 0.83 | 6.45 | 31.8 | 9.36 |  |  |  |
| CC(=O)N[C@H](C(=O)Nc1ccc(C(=O)NS(=O)(=O)c2ccc(NCCSc3ccccc3)c([N+](=O)[O-])c2)cc1)C(C)C | 3.27 | 9.49 | 16.4 | 8.85 | 6.33 |  |  |  |
| O=C(NS(=O)(=O)c1ccc(NCCSc2ccccc2)c([N+](=O)[O-])c1)c1ccc(NC(=O)c2ccccc2Cl)cc1 |  |  |  |  |  | > 164 | 41.2 | 69.9 |
| O=C(Nc1ccc(C(=O)NS(=O)(=O)c2ccc(NCCSc3ccccc3)c([N+](=O)[O-])c2)cc1)c1cccc(Cl)c1 |  |  |  |  |  | 33.1 | 37.5 | 46.7 |
| O=C(Nc1ccc(C(=O)NS(=O)(=O)c2ccc(NCCSc3ccccc3)c([N+](=O)[O-])c2)cc1)c1ccc(Cl)cc1 |  |  |  |  |  | 43.4 | 37.5 | 49.9 |
| Cc1ccccc1C(=O)Nc1ccc(C(=O)NS(=O)(=O)c2ccc(NCCSc3ccccc3)c([N+](=O)[O-])c2)cc1 |  |  |  |  |  | 161 | 38.8 | 47.6 |
| Cc1cccc(C(=O)Nc2ccc(C(=O)NS(=O)(=O)c3ccc(NCCSc4ccccc4)c([N+](=O)[O-])c3)cc2)c1 |  |  |  |  |  | 169 | 92.6 | > 169 |
| Cc1ccc(C(=O)Nc2ccc(C(=O)NS(=O)(=O)c3ccc(NCCSc4ccccc4)c([N+](=O)[O-])c3)cc2)cc1 |  |  |  |  |  | 48.6 | 38.8 | 53 |
| COc1ccc(C(=O)Nc2ccc(C(=O)NS(=O)(=O)c3ccc(NCCSc4ccccc4)c([N+](=O)[O-])c3)cc2)cc1 | 3.11 | 0.8 | 1.27 |  |  | 14.6 | 22.9 | 36.1 |
| CN(C)CC[C@H](CSc1ccccc1)Nc1ccc(S(=O)(=O)NC(=O)c2ccc(N3CCN(Cc4ccccc4-c4ccc(Cl)cc4)CC3)cc2)cc1[N+](=O)[O-] [ABT 737] |  |  |  | 42.5 | 55.4 | 47.7 | 93.5 | > 123 |

More lines, main results first:

| Ki [1] [µM] | Ki [3] [µM] | Ki [5] [µM] | Compound | inhibition of growth at 100 µg/mL [2] [%] | inhibition of growth at 100 µg/mL [4] [%] | IC50 [6] [µM] | IC50 [7] [µM] | IC50 [8] [µM] |
| --- | --- | --- | --- | --- | --- | --- | --- | --- |
| 3.11 | 3.39 | 3.42 | CC(=O)N[C@@H](Cc1ccccc1)C(=O)Nc1ccc(C(=O)NS(=O)(=O)c2ccc(NCCSc3ccccc3)c([N+](=O)[O-])c2)cc1 | 26.8 | 36.6 |  |  |  |
| 4.16 | 1.67 | 2.51 | O=C(Nc1ccc(C(=O)NS(=O)(=O)c2ccc(NCCSc3ccccc3)c([N+](=O)[O-])c2)cc1)c1ccccc1 |  |  | 136 | 39.8 | 59.9 |
| 3.02 | 1.09 | 1.71 | O=C(NS(=O)(=O)c1ccc(NCCSc2ccccc2)c([N+](=O)[O-])c1)c1ccc(NC(=O)c2ccccc2F)cc1 |  |  | 40 | 32.2 | 48.1 |
| 3.09 | 1.4 | 2.08 | O=C(Nc1ccc(C(=O)NS(=O)(=O)c2ccc(NCCSc3ccccc3)c([N+](=O)[O-])c2)cc1)c1cccc(F)c1 |  |  | > 168 | 39.4 | 59.5 |
| 2.54 | 0.93 | 1.94 | O=C(Nc1ccc(C(=O)NS(=O)(=O)c2ccc(NCCSc3ccccc3)c([N+](=O)[O-])c2)cc1)c1ccc(F)cc1 |  |  | 78.9 | 38.6 | 57.5 |
| 4.1 | 0.76 | 1.5 | O=C(Nc1ccc(C(=O)NS(=O)(=O)c2ccc(NCCSc3ccccc3)c([N+](=O)[O-])c2)cc1)c1ccc(Br)cc1 |  |  | 10.5 | 35 | 39.5 |
| 7.22 | 15.2 | 2.29 | O=C(NS(=O)(=O)c1ccc(NCCSc2ccccc2)c([N+](=O)[O-])c1)c1ccc(NS(=O)(=O)c2ccccc2)cc1 |  |  | 163 | > 163 | > 163 |
